Data as given in patent publication US8309598B2, “Cooling compounds” (Givaudan S.A., priority 2007, dated 2012).

Key:
Assay type in all cases: in vivo
[1] = Tasting of a dilute solution in de-ionized water against water as control
Experimental: A 0.1% w/w solution of 5-(4H-benzo[d][1,3]oxathiin-2-yl)-2-methoxyphenol was prepared in ethanol and diluted, with good mixing, into de-ionized water: thereby, generating a 1 ppm solution of 5-(4H-benzo[d][1,3]oxathiin-2-yl)-2-methoxyphenol in water. This solution was tasted using de-ionized water as the control.
A 20 ppm solution of 5-(4H-benzo[d][1,3]oxathiin-2-yl)-2,3-dimethoxyphenol (0.1% w/w in EtOH) was prepared in de-ionized water. The resulting solution was evaluated against de-ionized water as the control.
One gram of a 1000 ppm solution of 2-(4-methoxyphenyl)-4H-benzo[d][1,3]oxathiine in EtOH was added to 99 grams of water generating a 10 ppm taste solution. This solution was tasted relative to water.
One gram of a 1000 ppm solution of 4-(4H-benzo[d][1,3]oxathiin-2-yl)phenol in EtOH was added to 99 grams of water generating a 10 ppm taste solution. This solution was tasted relative to water.

[2] = Tasting in sugar/lemon flavor water against control without compound; settings: 1 gram of 1000 ppm EtOH solution with 5 g sugar, 1 gram 1% lemon flavor, 93 grams water
Experimental: Five grams of sugar, 1 gram of a 1% solution of lemon flavor in EtOH and 1 gram of a 1000 ppm solution of 2-(4-methoxyphenyl)-4H-benzo[d][1,3]oxathiine in EtOH were added to 93 grams water. The resulting solution was tasted relative to a control made up of 5 g sugar, 1 gram lemon flavor and 94 g water.
Five grams of sugar, 1 gram of a 1% solution of lemon flavor in EtOH and 1 gram of a 1000 ppm solution of 4-(4H-benzo[d][1,3]oxathiin-2-yl)phenol in EtOH were added to 93 grams water. The resulting solution was tasted relative to a control made up of 5 g sugar, 1 gram lemon flavor and 94 g water.

[3] = Tasting in cantaloupe-flavored taffy against control without compound; settings: 0.14% w/w of a 0.1% w/v EtOH solution in cantaloupe-flavored taffy with malic acid
Experimental: A desired quantity of taffy was chipped off using hammer and chisel and melted in the microwave for 5-30 seconds depending on batch size. Next, 1.2% w/w of a cantaloupe flavor (Givaudan) was added to 98.26% w/w sample of the taffy followed by 0.4% w/w of granular malic acid and 0.14% w/w of 5-(4H-benzo[d][1,3]oxathiin-2-yl)-2-methoxyphenol (0.1% w/v in EtOH). The control sample was produced the same by increasing the taffy base to make up for the absence of 5-(4H-benzo[d][1,3]oxathiin-2-yl)-2-methoxyphenol in the formula. In both the control and the experimental sample, the contents were well mixed by hand while wearing gloves. The taffy was shaped into individual portions and covered in an airtight container overnight.

[4] = Tasting in pistachio-flavored sweetened milk against control without compound; settings: 0.8 ppm sample in pistachio-flavored sweetened milk
Experimental: A pistachio-flavored sweetened milk was prepared using 87.52% by weight of 2% reduced fat milk, 10% by weight of granulated fruit sugar, 1.4% w/w of FD&C Blue #1 (0.01% w/w in water), 0.8% w/w of FD&C yellow #5 (0.1% w/w in water). 0.2% w/w of natural pistachio flavor (Givaudan) and 0.08% of a 0.10% w/w solution of 5-(4H-benzo[d][1,3]oxathiin-2-yl)-2-methoxyphenol in ethanol generating a 0.8 ppm sample. The control was prepared the same by increasing the milk to 87.6% and leaving out 5-(4H-benzo[d][1,3]oxathiin-2-yl)-2-methoxyphenol.

[5] = Tasting in banana-flavored thawed vanilla ice cream against control without compound; settings: 0.02 g of a 1% EtOH solution with 0.02 g banana flavor in 99.96 g thawed vanilla ice cream
Experimental: Vanilla ice cream was thawed in the microwave for 20 seconds. Next, 0.02 g of N&A banana ice cream flavor and 0.02 g of a 1% solution of 5-(4H-benzo[d][1,3]oxathiin-2-yl)-2-ethoxyphenol in EtOH were added to 99.96 g of the thawed vanilla ice cream. The resulting mixture was mixed well with a spoon and tasted relative to the control, which was made up of 0.02 g of the N&A banana flavor in 99.98 g of the thawed vanilla ice cream.

[6] = Tasting in CoolMint Listerine against CoolMint Listerine as control; settings: 0.08% w/w of a 1.0% w/w EtOH solution in 99.92% w/w CoolMint Listerine
Experimental: A 0.08% w/w sample of 5-(4H-benzo[d][1,3]oxathiin-2-yl)-2,3-dimethoxyphenol (1.0% w/w in EtOH) was added to 99.92% w/w CoolMint Listerine™ and the contents were mixed well. The resulting mixture was tasted using CoolMint Listerine™ as the control.

[7] = Tasting in sweetened lime-flavored beverage against control without compound; settings: 0.07% w/w of a 1.0% w/w EtOH solution in lime beverage (10% fruit sugar, citric acid)
Experimental: Granulated fruit sugar, 10% w/w, 0.25% w/W of citric acid, 0.24% w/w of FD&C yellow #5 (0.1% w/w in water), 0.24% of FD&C blue #1 (0.01% w/w in water), 0.1% w/w 15 fold lime oil (1.0% w/w in EtOH), 0.03% w/v of sodium citrate and 0.07% w/w of 5-(4H-benzo[d][1,3]oxathiin-2-yl)-2,3-dimethoxyphenol (1.0% w/w in EtOH) were added to 89.07% w/v of de-ionized water. The control was prepared by eliminating 5-(4H-benzo[d][1,3]oxathiin-2-yl)-2,3-dimethoxyphenol and increasing the water content to 89.14%.

[8] = Tasting in almond-flavored 2% milk against control without compound; settings: 0.01 g of a 1% EtOH solution with 0.01 g natural almond flavor in 99.98 g of 2% milk
Experimental: Natural almond flavor 0.01 g and 0.01 g of a 1% solution of 4-(4H-benzo[d][1,3]oxathiin-2-yl)benzonitrile in EtOH were added to 99.98 g of 2% milk and the contents were mixed well. This solution was tasted relative to the control, which was made up of 0.01 g of natural almond flavor and 99.99 g of 2% milk.

[9] = 10 ppm taste solution in water, tasted relative to water

COc1ccc(C2OCc3ccccc3S2)cc1 (stereo not drawn) [2-(4-methoxyphenyl)-4H-benzo[d][1,3]oxathiine]
Comments on flavor properties [1, 9]: cooling, slightly anisic, lingering cooling
Comments on flavor modification [2]: cooling, anise, sweeter, bitter peel, more acidic, tingle, lingering flavor, better aroma and refreshing

COc1ccc(C2OCc3ccccc3S2)cc1O (stereo not drawn) [5-(4H-benzo[d][1,3]oxathiin-2-yl)-2-methoxyphenol]
Comments on flavor modification [3]: sweeter, cooling, enhanced sourness, salivating, aroma enhancement and increased impact
Comments on flavor properties relative to the control ([1]; 1 ppm solution in water, control de-ionized water): sweet, cooling and lingering
Comments on flavor modification [4]: enhanced flavor impact, sweeter, cooling, enhanced creaminess, enhanced nutty character, sour aftertaste and brighter

CCOc1ccc(C2OCc3ccccc3S2)cc1O (stereo not drawn) [Example 1, 5-(4H-benzo[d][1,3]oxathiin-2-yl)-2-ethoxyphenol]
Comments on flavor modification [5]: enhances flavor, makes the banana riper, increases creaminess, sweeter and cooling

COc1cc(C2OCc3ccccc3S2)cc(O)c1OC (stereo not drawn) [Example 2, 5-(4H-benzo[d][1,3]oxathiin-2-yl)-2,3-dimethoxyphenol]
Comments on flavor modification [6]: retronasal burn, cooling enhancement, intensifies flavor, increased eucalyptus, slow onset then strong burn, sweet and alcohol enhancement
Comments on flavor properties ([1]; 20 ppm solution in de-ionized water, control de-ionized water): cooling, sweet, burns tongue, lingering sweetness, bitter and lingering cooling
Comments on flavor modification [7]: sweet, cooling, astringent, juicy, mouth-watering and tart/bite

N#Cc1ccc(C2OCc3ccccc3S2)cc1 (stereo not drawn) [Example 3, 4-(4H-benzo[d][1,3]oxathiin-2-yl)benzonitrile]
Comments on flavor modification [8]: stronger flavor, more toasted note, earthy note, more authentic, cooling, bitter almond like, sweeter, more nutty and nut skin

Oc1ccc(C2OCc3ccccc3S2)cc1 (stereo not drawn) [Example 4, 4-(4H-benzo[d][1,3]oxathiin-2-yl)phenol]
Comments on flavor properties [1, 9]: slightly sweet and slightly alliaceous
Comments on flavor modification [2]: cooling, dirty, sweeter, lemon peel, nutty and bitter
